Measurements from paper PMC7291858, “An Enhanced Variant Designed From DLP4 Cationic Peptide Against Staphylococcus aureus CVCC 546” (Frontiers in Microbiology, 2020).
Peptide text beside a SMILES is read from it.

Assays:
S. aureus ATCC 43300 = assay type: cell-based, Staphylococcus aureus; details: microtiter, serial 2-fold dilutions, 37°C, 16∼20 h, triplicate; – = no activity
Experimental: (§1) The minimal inhibitory concentration (MIC) was evaluated by a microtiter plate assay ([Wiegand et al., 2008]). Serial 2-fold dilutions of test peptides were placed into a 96-well plate containing identical bacterial inoculum and incubated at 37°C for 16∼20 h. Vancomycin was used as antibiotic control. The MIC value was defined as the lowest peptide concentration where no visible growth occurred. All tests were made in triplicate.

[1] = test system: Staphylococcus aureus CVCC 546; experiment: microbe, parasite or virus in culture; assay type: cell-based; details: Table 1; – = no activity
Experimental: as §1

CC[C@H](C)[C@@H]1NC(=O)[C@@H]2CSSC[C@@H](C(=O)N[C@@H](CCCNC(=N)N)C(=O)N[C@@H](CC(N)=O)C(=O)O)NC(=O)[C@H](CC(N)=O)NC(=O)[C@@H]3CSSC[C@H](NC(=O)[C@H](C)NC(=O)[C@H](C)NC(=O)[C@H](Cc4c[nH]cn4)NC(=O)CNC(=O)[C@H](C(C)C)NC(=O)CNC(=O)[C@H](Cc4ccccc4)NC(=O)[C@@H]4CCCN4C(=O)[C@H](CO)NC(=O)[C@H](CC(C)C)NC(=O)[C@H](CC(C)C)NC(=O)[C@H](CC(=O)O)NC(=O)[C@@H](NC(=O)[C@@H](NC(=O)[C@H](C)N)[C@@H](C)O)CSSC[C@H](NC(=O)[C@H](Cc4c[nH]c5ccccc45)NC(=O)CNC(=O)CNC(=O)[C@H](CCCNC(=N)N)NC(=O)[C@H](CCCCN)NC(=O)CNC(=O)[C@H](CCCNC(=N)N)NC(=O)[C@H](C)NC1=O)C(=O)N[C@@H](CC(=O)O)C(=O)N[C@@H](CCCCN)C(=O)N[C@@H](CCCNC(=N)N)C(=O)N[C@@H](C)C(=O)N[C@@H](C(C)C)C(=O)N3)C(=O)N[C@@H](C)C(=O)N[C@@H](C)C(=O)N[C@@H](Cc1c[nH]cn1)C(=O)N2 [ID17] (HELM PEPTIDE1{A.T.C.D.L.L.S.P.F.G.V.G.H.A.A.C.A.A.H.C.I.A.R.G.K.R.G.G.W.C.D.K.R.A.V.C.N.C.R.N}$PEPTIDE1,PEPTIDE1,3:R3-30:R3|PEPTIDE1,PEPTIDE1,16:R3-36:R3|PEPTIDE1,PEPTIDE1,20:R3-38:R3$$$V2.0; N-terminus and C-terminus assumed; bridges inferred)
A1 (MIC against S. aureus ATCC 43300) (S. aureus ATCC 43300): 16 µg/mL
MIC [1]: 64

CC(C)C[C@@H]1NC(=O)[C@@H]2CSSC[C@@H](C(=O)N[C@@H](CCCNC(=N)N)C(=O)N[C@@H](CCCCN)C(=O)O)NC(=O)[C@H](CC(N)=O)NC(=O)[C@@H]3CSSC[C@H](NC(=O)[C@H](C)NC(=O)[C@H](C)NC(=O)[C@H](Cc4c[nH]cn4)NC(=O)CNC(=O)[C@H](C(C)C)NC(=O)[C@H](CCCCN)NC(=O)[C@H](Cc4ccccc4)NC(=O)[C@@H]4CCCN4C(=O)[C@H](CO)NC(=O)[C@H](CC(C)C)NC(=O)[C@H](CC(C)C)NC(=O)[C@H](CC(=O)O)NC(=O)[C@@H](NC(=O)[C@@H](NC(=O)[C@H](C)N)[C@@H](C)O)CSSC[C@H](NC(=O)[C@H](Cc4c[nH]c5ccccc45)NC(=O)CNC(=O)CNC(=O)[C@H](CCCNC(=N)N)NC(=O)[C@H](CCCCN)NC(=O)CNC(=O)[C@H](CCCNC(=N)N)NC(=O)[C@H](C)NC1=O)C(=O)N[C@@H](CC(=O)O)C(=O)N[C@@H](CCCCN)C(=O)N[C@@H](CCCNC(=N)N)C(=O)N[C@@H](C)C(=O)N[C@@H](C(C)C)C(=O)N3)C(=O)N[C@@H](C)C(=O)N[C@@H](C)C(=O)N[C@@H](Cc1c[nH]cn1)C(=O)N2 [ID29] (HELM PEPTIDE1{A.T.C.D.L.L.S.P.F.K.V.G.H.A.A.C.A.A.H.C.L.A.R.G.K.R.G.G.W.C.D.K.R.A.V.C.N.C.R.K}$PEPTIDE1,PEPTIDE1,3:R3-30:R3|PEPTIDE1,PEPTIDE1,16:R3-36:R3|PEPTIDE1,PEPTIDE1,20:R3-38:R3$$$V2.0; N-terminus and C-terminus assumed; bridges inferred)
A1 (MIC against S. aureus ATCC 43300) (S. aureus ATCC 43300): 64 µg/mL
MIC [1]: 128

CC[C@H](C)[C@@H]1NC(=O)[C@@H]2CSSC[C@@H](C(=O)N[C@@H](CCCNC(=N)N)C(=O)N[C@@H](CCCCN)C(=O)O)NC(=O)[C@H](CC(N)=O)NC(=O)[C@@H]3CSSC[C@H](NC(=O)[C@H](C)NC(=O)[C@H](C)NC(=O)[C@H](Cc4c[nH]cn4)NC(=O)CNC(=O)[C@H](C(C)C)NC(=O)[C@H](CCCCN)NC(=O)[C@H](Cc4ccccc4)NC(=O)[C@@H]4CCCN4C(=O)[C@H](CO)NC(=O)[C@H](CC(C)C)NC(=O)[C@H](CC(C)C)NC(=O)[C@H](CC(=O)O)NC(=O)[C@@H](NC(=O)[C@@H](NC(=O)[C@H](C)N)[C@@H](C)O)CSSC[C@H](NC(=O)[C@H](Cc4c[nH]c5ccccc45)NC(=O)CNC(=O)CNC(=O)[C@H](CCCNC(=N)N)NC(=O)[C@H](CCCCN)NC(=O)CNC(=O)[C@H](CCCNC(=N)N)NC(=O)[C@H](C)NC1=O)C(=O)N[C@@H](CC(=O)O)C(=O)N[C@@H](CCCCN)C(=O)N[C@@H](CCCNC(=N)N)C(=O)N[C@@H](C)C(=O)N[C@@H](C(C)C)C(=O)N3)C(=O)N[C@@H](C)C(=O)N[C@@H](CC(C)C)C(=O)N[C@@H](Cc1c[nH]cn1)C(=O)N2 [ID27] (HELM PEPTIDE1{A.T.C.D.L.L.S.P.F.K.V.G.H.A.A.C.A.L.H.C.I.A.R.G.K.R.G.G.W.C.D.K.R.A.V.C.N.C.R.K}$PEPTIDE1,PEPTIDE1,3:R3-30:R3|PEPTIDE1,PEPTIDE1,16:R3-36:R3|PEPTIDE1,PEPTIDE1,20:R3-38:R3$$$V2.0; N-terminus and C-terminus assumed; bridges inferred)
A1 (MIC against S. aureus ATCC 43300) (S. aureus ATCC 43300): 8 µg/mL
MIC [1]: 8

CC[C@H](C)[C@@H]1NC(=O)[C@@H]2CSSC[C@@H](C(=O)N[C@@H](CCCNC(=N)N)C(=O)N[C@@H](CCCCN)C(=O)O)NC(=O)[C@H](CC(N)=O)NC(=O)[C@@H]3CSSC[C@H](NC(=O)[C@H](C)NC(=O)[C@H](C)NC(=O)[C@H](Cc4c[nH]cn4)NC(=O)CNC(=O)[C@H](C(C)C)NC(=O)[C@H](CCCCN)NC(=O)[C@H](Cc4ccccc4)NC(=O)[C@@H]4CCCN4C(=O)[C@H]([C@@H](C)O)NC(=O)[C@H](CC(C)C)NC(=O)[C@H](CC(C)C)NC(=O)[C@H](CC(=O)O)NC(=O)[C@@H](NC(=O)[C@@H](NC(=O)[C@H](C)N)[C@@H](C)O)CSSC[C@H](NC(=O)[C@H](Cc4c[nH]c5ccccc45)NC(=O)CNC(=O)CNC(=O)[C@H](CCCNC(=N)N)NC(=O)[C@H](CCCCN)NC(=O)CNC(=O)[C@H](CCCNC(=N)N)NC(=O)[C@H](C)NC1=O)C(=O)N[C@@H](CC(=O)O)C(=O)N[C@@H](CCCCN)C(=O)N[C@@H](CCCNC(=N)N)C(=O)N[C@@H](C)C(=O)N[C@@H](C(C)C)C(=O)N3)C(=O)N[C@@H](C)C(=O)N[C@@H](C)C(=O)N[C@@H](Cc1c[nH]cn1)C(=O)N2 [ID6] (HELM PEPTIDE1{A.T.C.D.L.L.T.P.F.K.V.G.H.A.A.C.A.A.H.C.I.A.R.G.K.R.G.G.W.C.D.K.R.A.V.C.N.C.R.K}$PEPTIDE1,PEPTIDE1,3:R3-30:R3|PEPTIDE1,PEPTIDE1,16:R3-36:R3|PEPTIDE1,PEPTIDE1,20:R3-38:R3$$$V2.0; N-terminus and C-terminus assumed; bridges inferred)
A1 (MIC against S. aureus ATCC 43300) (S. aureus ATCC 43300): 8 µg/mL
MIC [1]: 16

CC[C@H](C)[C@@H]1NC(=O)[C@@H]2CSSC[C@@H](C(=O)N[C@@H](CCCNC(=N)N)C(=O)N[C@@H](CCCCN)C(=O)O)NC(=O)[C@H](CC(N)=O)NC(=O)[C@@H]3CSSC[C@H](NC(=O)[C@H](C)NC(=O)[C@H](C)NC(=O)[C@H](Cc4c[nH]cn4)NC(=O)CNC(=O)[C@H](C(C)C)NC(=O)CNC(=O)[C@H](Cc4ccccc4)NC(=O)[C@@H]4CCCN4C(=O)[C@H](CO)NC(=O)[C@H](CC(C)C)NC(=O)[C@H](CC(C)C)NC(=O)[C@H](CC(=O)O)NC(=O)[C@@H](NC(=O)[C@@H](NC(=O)[C@H](C)N)[C@@H](C)O)CSSC[C@H](NC(=O)[C@H](Cc4c[nH]c5ccccc45)NC(=O)CNC(=O)CNC(=O)[C@H](CCCNC(=N)N)NC(=O)[C@H](CCCCN)NC(=O)CNC(=O)[C@H](CCCNC(=N)N)NC(=O)[C@H](C)NC1=O)C(=O)N[C@@H](CC(=O)O)C(=O)N[C@@H](CCCCN)C(=O)N[C@@H](CCCNC(=N)N)C(=O)N[C@@H](C)C(=O)N[C@@H](C(C)C)C(=O)N3)C(=O)N[C@@H](C)C(=O)N[C@@H](C)C(=O)N[C@@H](Cc1c[nH]cn1)C(=O)N2 [ID11] (HELM PEPTIDE1{A.T.C.D.L.L.S.P.F.G.V.G.H.A.A.C.A.A.H.C.I.A.R.G.K.R.G.G.W.C.D.K.R.A.V.C.N.C.R.K}$PEPTIDE1,PEPTIDE1,3:R3-30:R3|PEPTIDE1,PEPTIDE1,16:R3-36:R3|PEPTIDE1,PEPTIDE1,20:R3-38:R3$$$V2.0; N-terminus and C-terminus assumed; bridges inferred)
A1 (MIC against S. aureus ATCC 43300) (S. aureus ATCC 43300): 16 µg/mL

CC[C@H](C)[C@@H]1NC(=O)[C@@H]2CSSC[C@@H](C(=O)N[C@@H](CCCNC(=N)N)C(=O)N[C@@H](CCCCN)C(=O)O)NC(=O)[C@H](CC(N)=O)NC(=O)[C@@H]3CSSC[C@H](NC(=O)[C@H](C)NC(=O)[C@H](C)NC(=O)[C@H](Cc4c[nH]cn4)NC(=O)CNC(=O)[C@H](C(C)C)NC(=O)[C@H](CCCCN)NC(=O)[C@H](Cc4ccccc4)NC(=O)[C@@H]4CCCN4C(=O)[C@H](CO)NC(=O)[C@H]([C@@H](C)CC)NC(=O)[C@H](CC(C)C)NC(=O)[C@H](CC(=O)O)NC(=O)[C@@H](NC(=O)[C@@H](NC(=O)[C@H](C)N)[C@@H](C)O)CSSC[C@H](NC(=O)[C@H](Cc4c[nH]c5ccccc45)NC(=O)CNC(=O)CNC(=O)[C@H](CCCNC(=N)N)NC(=O)[C@H](CCCCN)NC(=O)CNC(=O)[C@H](CCCNC(=N)N)NC(=O)[C@H](C)NC1=O)C(=O)N[C@@H](CC(=O)O)C(=O)N[C@@H](CCCCN)C(=O)N[C@@H](CCCNC(=N)N)C(=O)N[C@@H](C)C(=O)N[C@@H](C(C)C)C(=O)N3)C(=O)N[C@@H](C)C(=O)N[C@@H](C)C(=O)N[C@@H](Cc1c[nH]cn1)C(=O)N2 [ID5] (HELM PEPTIDE1{A.T.C.D.L.I.S.P.F.K.V.G.H.A.A.C.A.A.H.C.I.A.R.G.K.R.G.G.W.C.D.K.R.A.V.C.N.C.R.K}$PEPTIDE1,PEPTIDE1,3:R3-30:R3|PEPTIDE1,PEPTIDE1,16:R3-36:R3|PEPTIDE1,PEPTIDE1,20:R3-38:R3$$$V2.0; N-terminus and C-terminus assumed; bridges inferred)
A1 (MIC against S. aureus ATCC 43300) (S. aureus ATCC 43300): 16 µg/mL
